Results: patent US20240158447A1, “PEPTIDES FOR USE IN THE TREATMENT OR PREVENTION OF MYOCARDIAL DAMAGE” (THE UNIVERSITY OF WESTERN AUSTRALIA, priority 2020, published 2024)
“Also recorded” adds a separate entry of the source.

Columns and labels:
Cavβ2 subunit = target: T1, Cavβ2 subunit (Homo sapiens, UniProt Q08289); experiment: Competitive binding affinity assay, biotinylated AID affinity beads vs Cavβ2 subunit (Example 9); details: dose-response 0, 10 nM to 100 μM peptide; FIG. 9
T1 construct: incubated with 100 μg of Cavβ2 subunit from cardiac homogenate and cytoplasmic protein preparation; from tissue; host or cells: cardiac homogenate and cytoplasmic protein preparation
Experimental: In this experiment, a binding affinity assay was utilized to examine the binding efficacy of AID peptide variants presented in Table 8, compared to the original AID peptide.
Biotinylation of original AID (no TAT): For each reaction (a dose-response curve consisted of 6 reactions), 0.02 nM […] was incubated in biotinylation solution (0.1M MES buffer containing 1 nM amine-PEG11-biotin and 0.2 nM EDC) for 2 hrs at room temperature with agitation (400 rpm). Affinity beads (Dynabeads M-280 Streptavidin, ThermoFisher Scientific) were then incubated with biotinylated AID peptide for 30 min at room temperature with agitation (400 rpm). Afterwards, biotinylated AID-coated affinity beads were washed, initially in 0.1% BSA in PBS and then three times in PBS for 3 min.
Biochem J. 2000; 348 Pt 3:657-65; Haase H, Striessnig J, Holtzhauer M, Vetter R, Glossmann H. A rapid procedure for the purification of cardiac 1,4-dihydropyridine receptors from porcine heart. Eur J Pharmacol. 1991; 207(1):51-9).
Competitive binding of AID-affinity beads and Cavβ2 subunit: Cavβ2-AID mutant peptide dilutions were then incubated with biotinylated AID-coated affinity beads for 2 hrs at room temperature with gentle agitation (400 rpm). Samples were placed on a magnetic stand to allow affinity beads to migrate to the magnet. Supernatant was removed and treated with 1× sample buffer (62.5 mM Tris-HCl, pH 6.8, 2% SDS, 10% glycerol, 100 mM DTT, 0.002% Bromophenol Blue) for 5 min at 95° C. Resulting protein was analysed by immunoblot.

cTnI-G203S mice = experiment: Echocardiography of pre-cardiomyopathic cTnI-G203S mice (Example 15); assay type: in vivo, mouse; details: 5 μM, 3×/wk/5 wk, FIG. 15
Description: Twenty to thirty week-old male mice expressing the human cTnI gene encoding the human disease-causing cTnI-G203S were generated and used for the in vivo studies. By way of background, the mice develop hallmark features of HCM between 20 and 25 weeks (Viola H, Johnstone V, Cserne Szappanos H, Richman T, Tsoutsman T, Filipovska A, et al. The L-type Ca(2+) channel facilitates abnormal metabolic activity in the cTnI-G2035 mouse model of hypertrophic cardiomyopathy. J Physiol. 2016; 594(14):4051-70; Viola H M, Shah A A, Johnstone V P A, Cserne Szappanos H, Hodson M P, Hool L C. Characterization and validation of a preventative therapy for hypertrophic cardiomyopathy in a murine model of the disease. Proc Nati Aced Sci U S A. 2020; 117(37):23113-24; Tsoutsman T, Chung J, Doolan A, Nguyen L, Williams IA, Tu E, et al. Molecular insights from a novel cardiac troponin I mouse model of familial hypertrophic cardiomyopathy. J Mol Cell Cardiol. 2006; 41(4):623-32). Age-matched male mice expressing the normal human troponin I gene were used as controls and indicated as wild-type (wt). For in vivo studies, 20-week old cTnI-G203S mice were treated with 10 μM AID(S)-TAT (2 mg/kg) or 5 μM AID-TAT mutant peptides via intraperitoneal injection, 3 times per week for a total duration of 5 weeks. The peptide was dissolved in phosphate buffered saline solution (PBS), and the total amount of the 10 μM AID-TAT mutant peptides administered over 5 weeks was 0.9 mg. The total amount of the 5 μM AID-TAT mutant peptides administered over 5 weeks was 0.45 mg Male mice were utilized to eliminate potential differences in responses due to gender. The number of mice used is indicated by N.
Echocardiographic studies to measure left ventricular function were performed on mice under light methoxyflurane anaesthesia with the use of an i13L probe on a Vivid™ 7 IQ ultrasound system (GE Healthcare, Little Chalfont, UK) as previously described (Viola H, Johnstone V, Cserne Szappanos H, Richman T, Tsoutsman T, Filipovska A, et al. The L-type Ca(2+) channel facilitates abnormal metabolic activity in the cTnI-G2035 mouse model of hypertrophic cardiomyopathy. J Physiol. 2016; 594(14):4051-70; Viola H M, Shah A A, Johnstone V P A, Cserne Szappanos H, Hodson M P, Hool L C. Characterization and validation of a preventative therapy for hypertrophic cardiomyopathy in a murine model of the disease. Proc Natl Acad Sci U S A. 2020; 117(37):23113-24; Viola H M, Johnstone V P A, Cserne Szappanos H, Richman T R, Tsoutsman T, Filipovska A, et al. The Role of the L-Type Ca(2+) Channel in Altered Metabolic Activity in a Murine Model of Hypertrophic Cardiomyopathy. JACC Basic Transl Sci. 2016; 1(1-2):61-72). Each N represents the average of quantitative measurements from wt or cTnI-G203S mice for each treatment group.

cTnI.2 wt myocytes = experiment: Flavoprotein oxidation response to BayK(−), wt myocytes (Example 10); assay type: cell-based, mouse; details: 10 μM BayK(−)
Experimental: In this experiment wt myocytes were pre-exposed to 0.1, 0.5 or 1 μM for 20 min and assessed changes in flavoprotein oxidation and ψm.
Measurement of mitochondrial flavoprotein oxidation: Flavoprotein autofluorescence was used to measure flavoprotein oxidation based on previously described methods (Yaniv Y, Juhaszova M, Lyashkov A E, Spurgeon H A, Sollott S J, Lakatta E G. Ca2+-regulated-cAMP/PKA signaling in cardiac pacemaker cells links ATP supply to demand. J Mol Cell Cardiol. 2011; 51(5):740-8). […] Fluorescent images were acquired at 1 min intervals with 200 ms exposure. Metamorph 6.3 (Version 7.10.3) was used to quantify the signal by manually tracing myocytes. An equivalent region not containing cells was used as background and was subtracted. Fluorescence values recorded over 5 min before and 5 min after addition of drugs were averaged and alterations in fluorescent ratios reported as the percentage increase from the basal average. FCCP (50 μM) and NaCN (40 mM) was added at the end of each experiment to achieve a respective maximal and minimal fluorescence value indicative of maximal and minimal flavoprotein oxidation.
The ICA-L agonist BayK(−) was used to activate the channel and assess mitochondrial function. […] FIG. 10 presents the mean+/−SEM of flavoprotein fluorescence from cTnI.2 wt and cTnI-G2035 mutant myocytes before and after exposure to 10 μM BayK(−) in the presence of 1 μM AID(S)-TAT, and increasing concentrations of variant peptides as indicated. N=no. of animals, n=no. of cardiomyocytes. P values shown compared with AID(S)-TAT as determined by the Kruskal-Wallis test.

T1 sequence (Q08289 whole entry): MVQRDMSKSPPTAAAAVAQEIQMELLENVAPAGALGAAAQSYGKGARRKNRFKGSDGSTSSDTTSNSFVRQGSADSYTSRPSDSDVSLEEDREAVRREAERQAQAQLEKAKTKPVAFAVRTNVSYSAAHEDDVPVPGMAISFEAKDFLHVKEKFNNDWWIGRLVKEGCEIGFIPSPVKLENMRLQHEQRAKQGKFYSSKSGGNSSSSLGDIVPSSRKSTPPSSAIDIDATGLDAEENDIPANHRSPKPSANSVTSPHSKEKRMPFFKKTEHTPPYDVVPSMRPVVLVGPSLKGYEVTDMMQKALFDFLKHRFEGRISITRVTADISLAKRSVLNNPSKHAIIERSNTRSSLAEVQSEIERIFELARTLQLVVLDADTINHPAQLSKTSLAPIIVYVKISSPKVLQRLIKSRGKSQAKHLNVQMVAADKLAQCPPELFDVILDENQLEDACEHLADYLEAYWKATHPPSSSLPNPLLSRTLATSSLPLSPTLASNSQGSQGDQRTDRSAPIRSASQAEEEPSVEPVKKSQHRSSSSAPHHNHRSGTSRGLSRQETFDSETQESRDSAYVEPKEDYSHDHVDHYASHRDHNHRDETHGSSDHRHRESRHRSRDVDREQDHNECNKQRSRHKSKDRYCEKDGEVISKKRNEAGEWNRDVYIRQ

With “AIDP7-TAT: QQQEEDLKGYLDWITQAE with TAT sequence” the “K0.5 values compared to AID peptide” value (Cavβ2 subunit) was “decreased K0.5 values”, the IVDS (cTnI-G203S mice) was “trend toward increased LVEDd and LVEDs, and decreased IVDS” and the “EF, ejection fraction” value (cTnI-G203S mice; versus AID(S)-TAT) was “effectively restored”. For the same substance, the “FS, fractional shortening” value (cTnI-G203S mice; versus AID(S)-TAT) was “effectively restored”, the “IVSs, intraventricular septum in systole” value (cTnI-G203S mice; versus AID(S)-TAT) was “significant decrease; also recorded: effectively restored” and the “LVEDd, left ventricular end diameter during diastole” value (cTnI-G203S mice; versus AID(S)-TAT) was “trend toward increased LVEDd and LVEDs, and decreased IVDS”. The “LVEDs, left ventricular end diameter during systole” value (cTnI-G203S mice; versus AID(S)-TAT) was “trend toward increased LVEDd and LVEDs, and decreased IVDS”, the “LVPWd, left ventricular posterior wall in diastole” value (cTnI-G203S mice; versus AID(S)-TAT) was “effectively restored” and the “LVPWs, left ventricular posterior wall in systole” value (cTnI-G203S mice; versus AID(S)-TAT) was “effectively restored; also recorded: significant decrease”. For the same substance, the “BayK(−) induced increase in flavoprotein oxidation” value (cTnI.2 wt myocytes; 0.5 μM peptide 20 min, FIG. 10B) was “effective” and the “BayK(−) induced increase in flavoprotein oxidation” value (cTnI.2 wt myocytes; 1 μM peptide 20 min, FIG. 10A) was “just as effective at attenuating the response in wt myocytes as the original AID-TAT”.
